In paper PMC6437697 (Journal of Medicinal Chemistry, 2019):

Assays:
Experiment in all cases: KINOMEscan
Format in all cases: binding
EGFR(L861Q) = biological target: T1, EGFR(L861Q) (Homo sapiens, UniProt P00533, L861Q); conditions: read-out: % control activity remaining
T1 construct: purchased Eurofins DiscoverX KINOMEscan

EPHB2 = biological target: T2, EPHB2 (Homo sapiens, UniProt P29323); conditions: read-out: % control activity remaining
T2 construct: purchased Eurofins DiscoverX KINOMEscan
T2 sequence (P29323 19-1055): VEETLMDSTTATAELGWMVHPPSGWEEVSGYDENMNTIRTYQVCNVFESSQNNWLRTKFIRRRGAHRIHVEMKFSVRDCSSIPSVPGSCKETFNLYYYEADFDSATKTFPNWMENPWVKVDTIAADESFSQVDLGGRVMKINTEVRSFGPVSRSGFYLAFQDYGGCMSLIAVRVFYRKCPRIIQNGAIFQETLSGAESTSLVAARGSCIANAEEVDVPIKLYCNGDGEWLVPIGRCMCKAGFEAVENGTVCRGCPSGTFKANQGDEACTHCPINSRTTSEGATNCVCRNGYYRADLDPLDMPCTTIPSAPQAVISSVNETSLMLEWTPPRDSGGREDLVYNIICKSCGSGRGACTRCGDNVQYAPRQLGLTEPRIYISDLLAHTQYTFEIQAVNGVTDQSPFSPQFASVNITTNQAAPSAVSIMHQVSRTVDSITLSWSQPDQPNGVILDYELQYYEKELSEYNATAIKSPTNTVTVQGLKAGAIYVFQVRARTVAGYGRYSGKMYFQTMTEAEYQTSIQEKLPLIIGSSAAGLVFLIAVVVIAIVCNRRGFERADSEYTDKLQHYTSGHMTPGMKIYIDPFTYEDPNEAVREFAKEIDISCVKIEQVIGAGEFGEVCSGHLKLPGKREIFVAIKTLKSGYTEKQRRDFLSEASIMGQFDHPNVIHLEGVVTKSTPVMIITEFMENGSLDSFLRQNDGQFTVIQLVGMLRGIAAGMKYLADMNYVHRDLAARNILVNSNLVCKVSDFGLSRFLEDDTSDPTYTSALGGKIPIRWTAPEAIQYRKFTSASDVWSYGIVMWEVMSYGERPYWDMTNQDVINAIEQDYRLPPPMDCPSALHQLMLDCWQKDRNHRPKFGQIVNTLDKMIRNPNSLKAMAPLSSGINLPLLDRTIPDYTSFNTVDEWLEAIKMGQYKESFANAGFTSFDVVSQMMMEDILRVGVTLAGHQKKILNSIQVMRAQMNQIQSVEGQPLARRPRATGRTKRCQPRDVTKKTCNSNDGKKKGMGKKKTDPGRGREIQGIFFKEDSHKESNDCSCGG

NDR1 = biological target: T3, NDR1 (Homo sapiens, UniProt Q15208); conditions: read-out: % control activity remaining
T3 construct: purchased Eurofins DiscoverX KINOMEscan

PDPK1 = biological target: T4, PDPK1 (Homo sapiens, UniProt O15530); conditions: read-out: % control activity remaining
T4 construct: purchased Eurofins DiscoverX KINOMEscan
T4 sequence (O15530 1-556): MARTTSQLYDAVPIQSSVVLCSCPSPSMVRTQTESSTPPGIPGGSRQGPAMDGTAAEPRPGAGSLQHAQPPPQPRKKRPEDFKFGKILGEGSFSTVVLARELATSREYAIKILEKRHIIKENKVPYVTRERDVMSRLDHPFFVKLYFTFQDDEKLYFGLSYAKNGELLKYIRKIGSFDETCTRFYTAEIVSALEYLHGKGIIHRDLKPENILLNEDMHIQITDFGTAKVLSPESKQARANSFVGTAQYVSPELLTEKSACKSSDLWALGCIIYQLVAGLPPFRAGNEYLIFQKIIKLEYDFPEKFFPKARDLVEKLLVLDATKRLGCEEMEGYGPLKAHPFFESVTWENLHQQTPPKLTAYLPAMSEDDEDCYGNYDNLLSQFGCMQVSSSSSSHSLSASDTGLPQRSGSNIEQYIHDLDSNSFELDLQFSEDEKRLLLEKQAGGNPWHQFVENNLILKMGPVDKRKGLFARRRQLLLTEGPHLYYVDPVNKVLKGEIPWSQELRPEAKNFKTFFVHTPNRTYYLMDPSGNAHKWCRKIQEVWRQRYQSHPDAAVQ

PIK3CA(E545A) = biological target: T5, PIK3CA(E545A) (Homo sapiens, UniProt P42336, E545A); conditions: read-out: % control activity remaining
T5 construct: purchased Eurofins DiscoverX KINOMEscan

PIK4CB = biological target: T6, PIK4CB (Homo sapiens, UniProt Q9UBF8); conditions: for remaining binding at 1 µM: read-out: % control activity remaining
T6 construct: purchased Eurofins DiscoverX KINOMEscan

SLK = biological target: T7, SLK (Homo sapiens, UniProt Q9H2G2); conditions: read-out: % control activity remaining
T7 construct: purchased Eurofins DiscoverX KINOMEscan

VEGFR2 = biological target: T8, VEGFR2 (Homo sapiens, UniProt P35968); conditions: read-out: % control activity remaining
T8 construct: purchased Eurofins DiscoverX KINOMEscan
T8 sequence (P35968 20-1356): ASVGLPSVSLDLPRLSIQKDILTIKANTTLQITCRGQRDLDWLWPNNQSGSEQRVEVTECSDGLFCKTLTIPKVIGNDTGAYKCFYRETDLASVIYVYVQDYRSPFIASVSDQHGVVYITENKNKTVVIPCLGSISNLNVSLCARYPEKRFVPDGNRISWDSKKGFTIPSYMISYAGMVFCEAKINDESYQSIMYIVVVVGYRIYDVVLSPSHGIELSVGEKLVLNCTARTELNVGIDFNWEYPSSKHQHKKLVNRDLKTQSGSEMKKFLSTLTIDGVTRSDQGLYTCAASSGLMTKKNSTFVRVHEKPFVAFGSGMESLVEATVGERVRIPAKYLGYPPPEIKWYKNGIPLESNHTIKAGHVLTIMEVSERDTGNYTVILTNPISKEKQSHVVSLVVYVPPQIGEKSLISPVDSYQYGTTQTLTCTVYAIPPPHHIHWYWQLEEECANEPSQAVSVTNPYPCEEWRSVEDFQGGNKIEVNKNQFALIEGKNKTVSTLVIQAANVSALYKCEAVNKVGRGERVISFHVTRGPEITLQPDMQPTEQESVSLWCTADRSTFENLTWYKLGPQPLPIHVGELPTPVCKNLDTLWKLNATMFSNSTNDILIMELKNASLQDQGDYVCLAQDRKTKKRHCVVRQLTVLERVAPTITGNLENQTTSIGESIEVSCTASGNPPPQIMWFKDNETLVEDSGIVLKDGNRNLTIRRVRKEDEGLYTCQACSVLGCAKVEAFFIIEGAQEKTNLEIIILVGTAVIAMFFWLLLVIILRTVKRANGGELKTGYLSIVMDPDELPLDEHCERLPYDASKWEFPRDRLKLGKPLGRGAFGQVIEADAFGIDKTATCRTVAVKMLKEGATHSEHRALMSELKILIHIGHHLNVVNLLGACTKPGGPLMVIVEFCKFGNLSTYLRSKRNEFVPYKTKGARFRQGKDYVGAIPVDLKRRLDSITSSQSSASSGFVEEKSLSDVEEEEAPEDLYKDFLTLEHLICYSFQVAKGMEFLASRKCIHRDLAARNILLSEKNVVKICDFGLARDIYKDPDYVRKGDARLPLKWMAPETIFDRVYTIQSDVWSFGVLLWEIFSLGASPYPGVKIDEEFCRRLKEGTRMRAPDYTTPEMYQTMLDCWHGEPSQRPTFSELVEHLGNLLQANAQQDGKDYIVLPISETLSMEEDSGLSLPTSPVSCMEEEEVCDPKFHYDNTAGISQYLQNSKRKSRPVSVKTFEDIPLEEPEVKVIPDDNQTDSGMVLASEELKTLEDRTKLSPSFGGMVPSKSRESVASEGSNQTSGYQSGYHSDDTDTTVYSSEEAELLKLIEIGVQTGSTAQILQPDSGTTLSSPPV

T3 sequence (Q15208 whole entry): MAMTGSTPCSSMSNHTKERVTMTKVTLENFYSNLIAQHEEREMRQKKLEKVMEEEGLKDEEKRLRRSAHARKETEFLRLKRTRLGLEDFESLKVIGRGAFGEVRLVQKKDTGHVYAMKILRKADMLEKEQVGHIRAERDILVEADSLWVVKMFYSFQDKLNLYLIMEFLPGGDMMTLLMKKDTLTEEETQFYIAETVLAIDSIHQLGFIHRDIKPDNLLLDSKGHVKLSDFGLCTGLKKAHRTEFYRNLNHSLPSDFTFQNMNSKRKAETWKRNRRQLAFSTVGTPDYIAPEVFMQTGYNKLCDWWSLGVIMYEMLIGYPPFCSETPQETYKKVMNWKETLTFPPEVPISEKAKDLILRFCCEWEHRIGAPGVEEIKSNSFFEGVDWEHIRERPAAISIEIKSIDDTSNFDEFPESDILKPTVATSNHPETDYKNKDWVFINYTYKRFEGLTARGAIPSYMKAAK
T5 sequence (P42336 whole entry E545A): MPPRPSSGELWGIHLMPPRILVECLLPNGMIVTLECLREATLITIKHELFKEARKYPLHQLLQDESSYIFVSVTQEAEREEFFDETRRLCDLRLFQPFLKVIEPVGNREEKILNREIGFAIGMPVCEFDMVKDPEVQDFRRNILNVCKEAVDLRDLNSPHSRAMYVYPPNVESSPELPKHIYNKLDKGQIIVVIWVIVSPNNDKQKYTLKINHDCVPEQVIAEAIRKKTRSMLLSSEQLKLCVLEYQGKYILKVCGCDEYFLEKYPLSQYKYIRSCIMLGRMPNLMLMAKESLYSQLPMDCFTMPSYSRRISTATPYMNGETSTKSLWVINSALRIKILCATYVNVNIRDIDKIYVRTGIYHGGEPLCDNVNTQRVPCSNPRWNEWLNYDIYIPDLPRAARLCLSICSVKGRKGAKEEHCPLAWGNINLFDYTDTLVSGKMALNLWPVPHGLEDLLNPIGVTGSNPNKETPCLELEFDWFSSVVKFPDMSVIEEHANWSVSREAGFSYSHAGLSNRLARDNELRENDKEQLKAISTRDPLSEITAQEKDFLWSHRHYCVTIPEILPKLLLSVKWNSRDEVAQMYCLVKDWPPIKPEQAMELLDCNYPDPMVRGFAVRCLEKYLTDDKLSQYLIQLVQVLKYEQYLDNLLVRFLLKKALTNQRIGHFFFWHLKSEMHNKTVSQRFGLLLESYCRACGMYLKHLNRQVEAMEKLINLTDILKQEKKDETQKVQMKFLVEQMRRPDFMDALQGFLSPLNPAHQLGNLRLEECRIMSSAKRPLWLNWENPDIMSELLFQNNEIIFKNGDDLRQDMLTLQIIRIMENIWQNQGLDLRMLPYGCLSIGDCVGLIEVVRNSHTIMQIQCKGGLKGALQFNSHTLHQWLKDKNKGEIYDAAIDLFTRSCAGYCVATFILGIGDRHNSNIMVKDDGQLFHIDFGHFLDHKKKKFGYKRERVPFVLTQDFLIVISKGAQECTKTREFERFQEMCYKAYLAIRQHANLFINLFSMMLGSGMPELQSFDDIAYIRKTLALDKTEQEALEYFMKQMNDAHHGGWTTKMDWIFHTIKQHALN
T7 sequence (Q9H2G2 whole entry, looked up): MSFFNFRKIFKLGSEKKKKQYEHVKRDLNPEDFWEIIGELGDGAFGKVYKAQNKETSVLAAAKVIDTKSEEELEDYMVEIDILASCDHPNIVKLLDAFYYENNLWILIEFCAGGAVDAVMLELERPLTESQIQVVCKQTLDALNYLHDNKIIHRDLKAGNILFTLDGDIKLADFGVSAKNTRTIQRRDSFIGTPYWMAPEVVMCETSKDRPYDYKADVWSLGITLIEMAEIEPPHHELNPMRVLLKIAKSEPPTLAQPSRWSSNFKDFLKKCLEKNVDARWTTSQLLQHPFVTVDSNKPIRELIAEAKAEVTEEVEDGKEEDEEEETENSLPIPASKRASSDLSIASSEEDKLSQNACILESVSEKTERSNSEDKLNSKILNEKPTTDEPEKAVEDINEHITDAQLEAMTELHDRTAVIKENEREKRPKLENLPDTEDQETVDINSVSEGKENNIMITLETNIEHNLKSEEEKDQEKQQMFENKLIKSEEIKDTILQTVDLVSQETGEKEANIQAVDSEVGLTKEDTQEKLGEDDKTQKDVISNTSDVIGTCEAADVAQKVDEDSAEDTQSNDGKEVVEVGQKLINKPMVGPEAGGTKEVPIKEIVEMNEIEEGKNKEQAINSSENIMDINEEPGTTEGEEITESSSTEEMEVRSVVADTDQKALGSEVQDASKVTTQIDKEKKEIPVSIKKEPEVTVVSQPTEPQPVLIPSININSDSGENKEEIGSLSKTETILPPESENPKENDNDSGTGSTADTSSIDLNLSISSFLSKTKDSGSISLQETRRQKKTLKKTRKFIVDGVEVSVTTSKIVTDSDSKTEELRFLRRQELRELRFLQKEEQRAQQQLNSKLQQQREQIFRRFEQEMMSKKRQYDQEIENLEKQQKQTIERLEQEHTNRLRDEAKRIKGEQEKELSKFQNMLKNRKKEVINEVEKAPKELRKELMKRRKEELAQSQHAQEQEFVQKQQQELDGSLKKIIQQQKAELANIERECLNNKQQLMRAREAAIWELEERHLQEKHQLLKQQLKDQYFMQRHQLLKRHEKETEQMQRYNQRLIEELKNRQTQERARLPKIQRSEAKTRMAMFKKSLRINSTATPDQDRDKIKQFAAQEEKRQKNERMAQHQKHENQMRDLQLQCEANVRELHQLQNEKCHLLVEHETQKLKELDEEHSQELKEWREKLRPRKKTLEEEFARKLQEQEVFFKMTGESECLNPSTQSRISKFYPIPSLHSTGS
T6 sequence (Q9UBF8 whole entry): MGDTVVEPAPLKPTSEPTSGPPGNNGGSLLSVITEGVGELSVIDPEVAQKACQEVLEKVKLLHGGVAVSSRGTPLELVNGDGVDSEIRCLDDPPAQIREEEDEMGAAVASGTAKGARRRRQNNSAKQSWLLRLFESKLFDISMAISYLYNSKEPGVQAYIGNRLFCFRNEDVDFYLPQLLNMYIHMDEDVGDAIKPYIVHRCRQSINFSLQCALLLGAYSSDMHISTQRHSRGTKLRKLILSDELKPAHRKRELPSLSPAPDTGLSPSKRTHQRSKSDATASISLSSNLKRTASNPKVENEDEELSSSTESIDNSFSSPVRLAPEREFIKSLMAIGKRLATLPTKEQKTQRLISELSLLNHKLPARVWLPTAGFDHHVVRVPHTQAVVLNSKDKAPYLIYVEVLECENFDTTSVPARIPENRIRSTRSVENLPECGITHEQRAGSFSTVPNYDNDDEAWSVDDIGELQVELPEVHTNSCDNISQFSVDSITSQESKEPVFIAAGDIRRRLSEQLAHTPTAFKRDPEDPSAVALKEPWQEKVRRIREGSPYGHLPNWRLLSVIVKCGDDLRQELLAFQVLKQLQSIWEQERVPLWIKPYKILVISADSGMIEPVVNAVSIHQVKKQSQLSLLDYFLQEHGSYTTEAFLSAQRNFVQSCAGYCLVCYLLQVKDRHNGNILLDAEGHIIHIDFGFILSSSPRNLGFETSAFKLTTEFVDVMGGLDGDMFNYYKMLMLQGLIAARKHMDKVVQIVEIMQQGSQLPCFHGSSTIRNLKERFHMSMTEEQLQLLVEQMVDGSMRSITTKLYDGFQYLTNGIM

Compound Clc1cc(NCC2CC2)c2ncc(-c3ccc4[nH]ncc4c3)n2n1 [compound 2, 6-Chloro-N-(cyclopropylmethyl)-3-(1H-indazol-5-yl)imidazo[1,2-b]pyridazin-8-amine] has a remaining binding at 1 µM (EGFR(L861Q)) of 82%, a remaining binding at 1 µM (EPHB2) of 83% and a remaining binding at 1 µM (NDR1) of 75%. It also gave a remaining binding at 1 µM (PDPK1) of 88%, a remaining binding at 1 µM (PIK3CA(E545A)) of 88% and a remaining binding at 1 µM (PIK4CB) of 3.3%. For the same compound, the inhibition at 1 µM (PIK4CB; read-out: Probe binding inhibited) was > 90%, the remaining binding at 1 µM (SLK) was 100% and the remaining binding at 1 µM (VEGFR2) was 79%.
O=C(CN1CCOCC1)N[C@H]1CC[C@H](Nc2cc(Cl)nn3c(-c4ccc5[nH]ncc5c4)cnc23)CC1 [compound 26] showed a remaining binding at 1 µM (EGFR(L861Q)) of 100%, a remaining binding at 1 µM (EPHB2) of 94% and a remaining binding at 1 µM (NDR1) of 96%. For the same compound, the remaining binding at 1 µM (PDPK1) was 100%, the remaining binding at 1 µM (PIK3CA(E545A)) was 100% and the remaining binding at 1 µM (PIK4CB) was 21%. For the same compound, the remaining binding at 1 µM (SLK) was 98% and the remaining binding at 1 µM (VEGFR2) was 35%.
Compound CN1CCC(CNc2cc(Cl)nn3c(-c4cc5nc(Nc6ccccc6)[nH]c5cc4F)cnc23)CC1 [compound 31, 6-Chloro-3-(6-fluoro-2-(phenylamino)-1H-benzo[d]imidazol-5-yl)-N-((1-methylpiperidin-4-yl)methyl)imidazo[1,2-b]pyridazin-8-amine] has a remaining binding at 1 µM (EGFR(L861Q)) of 100%, a remaining binding at 1 µM (EPHB2) of 96% and a remaining binding at 1 µM (NDR1) of 86%. It also gave a remaining binding at 1 µM (PDPK1) of 100%, a remaining binding at 1 µM (PIK3CA(E545A)) of 78% and a remaining binding at 1 µM (PIK4CB) of 73%. For the same compound, the remaining binding at 1 µM (SLK) was 80% and the remaining binding at 1 µM (VEGFR2) was 71%.
